According to US9175077B2, “Nucleic acids encoding biologically active polypeptides derived from a novel early stage pregnancy factor designated maternin (MA)” (NOBEL BIOSCIENCES LLC, priority 1999, dated 2015):
“Also recorded” adds a separate entry of the source. Where two headings read alike, the source gives them in different places.

Tests used:
HIV-1 = conditions: controls at similar, equimolar or higher concentrations
Experimental: Virus (MOI of 0.001) was added to 10^6 cells in RPMI-1640 with 10% FCS. One hour later the various polypeptides were added once. The cells cultured for 3 days with 5 ug PHA and 20 i.m. of II-2/ml at 37°, after which virus was estimated by determining p24 (HIV-1) or p27 (SIV) (Organon-Teknika).
The effect of native and synthetic MA on HIV-1 infection in vitro was evaluated using PHA and II-2 stimulated primary peripheral blood cells (PBMC), CD4+ T-cells enriched fractions from PBMC, and CD14+ macrophage enriched fractions. Infection was with HIV-1 IIIB (PBMC and CD4+ T-cells), HIV-1 Ba-L (macrophages), and two primary HIV-1 isolates not passaged in any cell line (PBMC).

fibrosarcoma 4TB166 = test: Confocal microscopy apoptosis; assay type: cell-based, human; conditions: 200 ng/ml; 24 hrs
Experimental: (§1) More extensive studies of the effects of MA and with truncated synthetic forms of MA (MAS) on a wide range of other human tumor cells were carried out using three-dimensional confocal microscopy. Cells were cultured and then seeded onto gelatinized glass chamber slides and incubated 24 hrs with the various test materials. The slides were then fixed with formalin and treated serially with Triton X-100 (0.01%) for 10 min at 25°, 0.4 ug/ml fluorescein isothiocyanate (FITC)-labeled Phalloidin (Sigma Chem. Co.) at room temperature for 30 min to bind actin, washed with PBS and the DNA stained with Propidium iodide (PI) (0.5 ug·ml) (Sigma Chemical Co.), for 15 min. The stained slides were washed and mounted on slow fade (Molecular Probes, Inc., Eugene, Oreg.) and examined through a dual emission filter XF53 (Omega, Inc., Brattlesboro, Va.) by fluorescent microscopy. In some experiments only DNA staining was performed. In these instances Triton X-100 was not used. The slides were stained with PI and examined for cell morphology and chromatin degradation under 3D confocal microscopy.

[1] = tested on: carcinoma of the lung HTB184; test: Confocal microscopy apoptosis; assay type: cell-based, human; conditions: 200 ng/ml; 24 hrs
Experimental: as §1

gliobastoma HTB16 = test: Confocal microscopy apoptosis; assay type: cell-based, human; conditions: 200 ng/ml; 24 hrs
Experimental: as §1

[2] = tested on: carcinoma of the kidney HTB46; test: Confocal microscopy apoptosis; assay type: cell-based, human; conditions: 200 ng/ml; 24 hrs
Experimental: as §1

[3] = tested on: carcinoma of the pancreas CRL 1682; test: Confocal microscopy apoptosis; assay type: cell-based, human; conditions: 200 ng/ml; 24 hrs
Experimental: as §1

KS Y-1 cells = test: Confocal microscopy apoptosis; assay type: cell-based, human; conditions: 200 ng/ml; 24 hrs
Experimental: as §1

[4] = tested on: leukemia and lymphoma cell lines: HUT78, DAVDI, HG, SULTAN, T-cell lymphoma; test: Confocal microscopy apoptosis; assay type: cell-based, human; conditions: 200 ng/ml; 24 hrs
Experimental: as §1

[5] = tested on: carcinoma of the breast HTB124; test: Confocal microscopy apoptosis; assay type: cell-based, human; conditions: 200 ng/ml; 24 hrs
Experimental: as §1

[6] = tested on: prostate carcinoma cell line PC3; test: Confocal microscopy apoptosis; assay type: cell-based, human; conditions: 200 ng/ml; 24 hrs
Experimental: as §1

Ewing's sarcoma = test: Confocal microscopy apoptosis; assay type: cell-based, human; conditions: 200 ng/ml; 24 hrs
Experimental: as §1

melanoma HTB67 = test: Confocal microscopy apoptosis; assay type: cell-based, human; conditions: 200 ng/ml; 24 hrs
Experimental: as §1

[7] = tested on: prostate carcinoma cell line PC4; test: Confocal microscopy apoptosis; assay type: cell-based, human; conditions: 200 ng/ml; 24 hrs
Experimental: as §1

carcinoma of the colon = test: Confocal microscopy apoptosis; assay type: cell-based, human; conditions: 200 ng/ml; 24 hrs
Experimental: as §1

[8] = tested on: human carcinoma and sarcoma cells (PC3, KS Y-1); test: Xenotransplanted human tumors in immunodeficient mice; assay type: in vivo; conditions: controls at equivalent and higher molar concentrations
Experimental: In the first set of experiments, MA was tested against tumors formed by xenotransplantation of various human carcinoma and sarcoma cells in immunodeficient mice. […] […] Three different synthetic forms of MA were used: full length (MAS3) and the previously described MAS1 and MAS2 (Panel C).

HIV-1 gene expression = test: HIV-1 transgenic mice, pups feeding from treated mothers; assay type: in vivo; conditions: mouse, in vivo
Text: The transgenic mice contain 5.1 kb of the HIV-1 proviral genome, lacking gag and pol genes and 2.3 kb of vector.^172 The newly developed transgenic rat contains the same HIV-1 sequences and vector.
Twenty-four hours after birth the mothers were either inoculated subcutaneously daily for 10 days or received an implanted osmotic pump delivering 30-150 pmoles of either native or synthetic MA or pMA. Various control polypeptides were used at equimolar or vast molar excess. The newborn pups were then allowed to feed from the foster mother breast milk over the entire period. Since the animals are at risk from needle inoculation, breastfeeding was the chosen route for MA administration.
In these experiments total RNA was extracted from samples of skin RNA206 10 days after birth of MA treated and untreated mice. One ug of RNA was reverse transcribed into cDNA using random hexamer primer and […] reverse transcriptase (Life Technologies, Inc.) in a final vol. Of 30 ul. Three ul of each reaction was used for PCR amplification of the HIV-1 gene sequences (env, tat, nef, and rev) as described […], and glyceraldehyde 3-phosphate dehydrogenase (GAPDH) was amplified from each sample for normalization. After 25 cycles, 10% of the products were resolved by electrophoresis on 2% agarose gels, transferred to nitrocellulose membranes by Southern blotting, and hybridized to fluorescein isthiocyanate-labeled oligonucleotide probes complementary to internal sequences of the amplicons […]. Bound probes were detected by chemiluminescence (Amersham) and relative mRNA levels determined by densitrometry after normalization with GAPDH mRNA levels.

human tumor cells = assay type: cell-based; conditions: controls at equimolar or 5 to 10× greater concentrations
Experimental: The anti-tumor activities of MA were assessed in several in vitro and in vivo systems using published methods.^166 In vitro studies were with a wide variety of human tumor cell lines as well as short-term cultures of cells from biopsy samples obtained from tumors. The assays included effects of MA on colony formation, cell number and viability (trypan blue), and apoptosis. Four measures of microscopy were used. In vivo studies included the effects of MA on tumors induced in immunodeficient mice by xenotransplanted various human neoplastic cells, spontaneous neoplasms of immuno-competent mice and rats, and a few standard tumors in immuno-competent mice. Representative examples are presented.
Cells (5×10^5/ml) were seeded in modified Eagle's medium supplemented with 10% FCS, 10% conditioned medium form PHA stimulated human lymphocytes, 2 mM glutamine in 0.8% V/V methylcellulose with or without various treatments in a final volume of 1.0 ml. Then 0.1 ml aliquots were seeded in 96 well flat bottom microtest plates and incubated at 37° C. in 5% CO2 in air for 7 days. Aggregates containing 50 cells or more were scored as colonies.
5×10^5 cells were seeded in triplicate on 24 gelatin coated wells in conditions as described for Panel A and treated with the indicated test materials. After 3 days the cells were dislodged from their monolayers by gentle pipetting with cell dissociation buffer (Life Technologies), counted after trypan blue staining and aliquots examined for Annexin V staining by indirect IFA […].
Studies of the anti-tumor cell effects of MA were extended to other carcinomas, melanoma, some hematopoietic tumors, and carcinomas of the colon, prostate, breast, lung, brain, pancreas, and kidney-using cell lines from these tumors. […] Many more types of tumor cells were studied utilizing other assays (see below).

[9] = Summary of active and inactive peptides / overall biological activities
[10] = tested on: hematopoietic progenitors (CFU-GEMM, BFU-e, CFU-GM, T-CFC); test: Hematopoietic colony formation assays; assay type: cell-based, human
Text: Hematopoietic colony formation assays with bone marrow or cord blood of normal human volunteers and bone marrow of monkeys, rats, and mice were utilized. The assays are conventional measurements of the number of progenitors for erythrocytes, granulocytes, macrophages, platelets, and T-cells. The culture conditions included growth factors that would give near optimum growth for the particular lineage. These factors included II-3, PHA-lymphocyte conditioned medium, erythropoietin (EPO), II-6, and GM-CSF. The number of colonies developing in methylcellulose reflects the number of progenitor cells, and the percent increase is a measure of the effect of different polypeptides to increase colony number above the maximum obtained with the indicated known growth factors.
The latter is a less conventional assay, and details on the methods involved are described elsewhere.^178

[11] = Lethal dose taxol in Sprague-Dawley rats; assay type: in vivo; conditions: even at high doses
Experimental: Sprague-Dawley rats were given taxol in large lethal doses, 4.5 mg in one I.P. inoculation. […] Bone marrow suppression can also be a side effect of the clinical use of taxol.^179 As in the radiation experiments, either MA, pMA, MAS1, or various polypeptide controls were given subcutaneously only in two doses 24 and 48 hrs before taxol treatment or were given 3×/week for 4 weeks. […]

[12] = Lethally irradiated rats and mice; conditions: treated at time of radiation
Experimental: In order to determine in vivo relevance of the prohematopoietic effects of MA treated rats and mice under several conditions of bone marrow suppression. First, the effects of native MA and pMA and of the synthetic 15-mer MAS1 were treated for their capacity to reduce or prevent the effects of lethal doses of gamma irradiation. […] MA, pMA, MAS1, and various control polypeptides were given 48 and 24 hrs before, during, or 24 hrs after radiation. The animals treated prior to radiation received either 100 ng vs. 1 ug (rats) or 50 ng vs. 500 ng (mice) as 2 subcutaneous injections.
It is not yet possible to determine the precise molar dose of pMA because of less certainty on its full-length sequence.
To ascertain that the MA effect did promote hematopoiesis in these animals we examined the bone marrow for cellularity and colony formation and determined peripheral blood counts.

NYRDVRFESIRLPGCPRGVNPVVSYAVALS (listed as Homo sapiens) [MAS2]
inhibition of HIV replication (qualitative) (HIV-1): full-inhibition | induction of apoptosis (fibrosarcoma 4TB166): induced apoptosis | induction of apoptosis [1]: induced apoptosis | induction of apoptosis (gliobastoma HTB16): induced apoptosis | induction of apoptosis [2]: induced apoptosis | induction of apoptosis [3]: induced apoptosis | induction of apoptosis (KS Y-1 cells): induced apoptosis | induction of apoptosis [4]: induced apoptosis | induction of apoptosis [5]: induced apoptosis | induction of apoptosis [6]: induced apoptosis | induction of apoptosis (Ewing's sarcoma): induced apoptosis | induction of apoptosis (melanoma HTB67): induced apoptosis | induction of apoptosis [7]: induced apoptosis | induction of apoptosis (carcinoma of the colon): induced apoptosis | effect on xenotransplanted tumor (qualitative) [8]: hypocellularity and degenerative changes of the cells; also recorded: undergoing apoptosis

β-hCG AA 21-52: control peptide 32 amino acids in length, AA 21-52 of β-hCG (EGCPVCITVNTTICAGYCPTMTRVLQGVLPAL; listed as Homo sapiens) [reference compound]
HIV-1 viral expression in tissues (HIV-1 gene expression): high expression | mice dead by day 10 (HIV-1 gene expression): 10 of 10 | inhibition of growth / induction of apoptosis of neoplastic cells (human tumor cells): negative

peptide 6-42: β-core AA 6-42 N-terminal polypeptide with PDGF related sequences (RPRCRPINATLAVEKEGCPVCITVNTTICAGYCPTMT; UniProt P0DN86 26-62, looked up, fragment) [reference compound]
biological activities in vitro or in vivo in the experimental systems described [9]: none of the activities

β-hCG 6-39: SEQ ID NO: 17 (RPRCRPINATLAVEKEGCPVCITVNTTICAGYCP; listed as Homo sapiens)
inhibition of growth / induction of apoptosis of neoplastic cells (human tumor cells): negative

B1: β-core: purified hCG beta core, degradation product of the beta chain of hCG; full length native glycosylated AA 6-40 & 55-92 (protein)
chain 1: RPRCRPINATLAVEKEGCPVCITVNTTICAGYCPTMT
chain 2: VVCNYRDVRFESIRLPGCPRGVNPVVSYAVALSCQCAL
hematopoietic effects in vivo and in vitro [10]: None | effect on colony number (qualitative) ([10]; equimolar or higher concentrations): no significant effect above background | HIV-1 viral expression in tissues (HIV-1 gene expression): high expression | mice dead by day 10 (HIV-1 gene expression): 10 of 10 | effect on survival (qualitative) [11]: no effect | time within which animals died [12]: ≤ 5 days | effect on xenotransplanted tumor (qualitative) [8]: no effect | biological activities in vitro or in vivo in the experimental systems described ([9]; listed as native glycosylated β-core): none of the biological activities | biological activities in vitro or in vivo in the experimental systems described ([9]; listed as purified native glycosylated core): no activity | inhibition of growth / induction of apoptosis of neoplastic cells (human tumor cells): no inhibition of growth or induction of apoptosis
